Laboratory results from patent publication US20240245693A1, “COMPOSITIONS AND METHODS OF TISSUE REGENERATION THERAPY” (The Regents of the University of California, priority 2021, published 2024).
“Also recorded” adds a separate entry of the source.

Experiments:
[1] = test system: Npas2; experiment: Npas2 expression in human dermal fibroblasts; assay type: cell-based; details: serotonin supplementation; FIG. 9F
Experimental: FIGS. 9A-9G show the effect of HTR1B and HTR2B on human dermal fibroblasts.
(§1) High throughput screening (HTS) of well-defined chemical compounds was performed using Npas2-LacZ reporter mouse skin fibroblasts. Chemical genomics analysis of hit compounds indicated the involvement of monoamine-related pathways for regulating Npas2 expression. To identify the regulatory mechanism of Npas2 in human dermal fibroblasts, a library of lentivirus expression vectors containing human monoamine-related genes was selected for over-expression study.

[2] = test system: human dermal fibroblasts; experiment: in vitro collagen synthesis assay using human dermal fibroblasts; assay type: cell-based
Experimental: Without serotonin (5-HT) supplementation, the majority of selected compounds maintained fibroblastic collagen synthesis.
as §1

[3] = test system: mouse splinted skin wound; experiment: mouse excisional splinted skin wound healing model, topical application; assay type: in vivo; details: daily topical application at 5 micromolar in 10% DMSO vehicle; FIG. 5
Text: FIGS. 1A-1B show wound healing in mouse excisional skin wound splinting model, wherein a splinting ring is tightly adhered to the skin around the wound, thereby preventing local skin contraction. The wound is thus healed through a process of granulation and re-epithelialization similar to that occurring in human. The figures present a time course healing of skin splinted wound in wild type (WT) (FIG. 1A) and Npas2 KO mice (FIG. 1B).
Skin of experimental animals such as mice are similarly composed of multiple tissues; however excisional wound heals faster in part due to active wound contraction. Therefore, mouse wound healing model employs a silicone stent around the excisional skin, which prevents contraction allowing the healing through re-epithelialization and granulation tissue formation. The mouse splinted skin wound model has provided a common experimental platform, which allows investigation of critical molecules for skin wound healing using genetically manipulated mice. Knockout mutation of wound inflammation related molecules such as Sphingosine kinase-1 or mast cell proteases was reported to delay the wound closure and the proliferative phase of healing, respectively.
High throughput screening (HTS) of well-defined chemical compounds was performed using Npas2-LacZ reporter mouse skin fibroblasts. […]

[4] = test system: human periodontal ligament MSC (PDLSC); experiment: in vitro osteogenic differentiation assay using human periodontal ligament stem cells (PDLSC); assay type: cell-based; details: supplementation of compound; FIG. 8

Row | Structure (SMILES) | Npas2 expression of human dermal fibroblasts [1] | in vitro collagen synthesis of human dermal fibroblasts ([2]; serotonin supplementation, FIG. 9E) | wound closure and skin tissue regeneration [3] | fibroblastic collagen synthesis ([2]; in the presence of 10 μM 5-HT supplementation, FIG. 4) | osteogenic differentiation of PDLSC [4]
1 | NCCc1c[nH]c2ccc(O)cc12 [serotonin] | increased | decreased |  |  | 
2 | N#Cc1cc(CN2CCC(Nc3ncnc4sc(Cl)cc34)CC2)ccc1F [PRX-08066, 5-[[4-[(6-chlorothieno[2,3-d]pyrimidin-4-yl)amino]piperidin-1-yl]methyl]-2-fluorobenzonitrile] |  |  | significant wound closure and skin tissue regeneration | high level of collagen synthesis | effective compound; also recorded: enhanced the differentiation of PDLSC
3 | CN1CCC(=C2c3ccccc3C=Cc3ccccc32)CC1 [Cyproheptadine, 1-methyl-4-(2-tricyclo[9.4.0.03,8]pentadeca-1(15),3,5,7,9,11,13-heptaenylidene)piperidine] |  |  | significant wound closure and skin tissue regeneration |  | 
